Data from ChEMBL document CHEMBL5331121, “Preferred Conformation-Guided Discovery of Potent and Orally Active HIF Prolyl Hydroxylase 2 Inhibitors for the Treatment of Anemia” (J Med Chem, 2023).
pIC50: −log10 of the molar value. Values belong to the compound of their own block, whether it stands above or below them. The source made the active and inactive calls. No cut-off for these calls is given here.

How the values were obtained:
[1] = molecular target: Egl nine homolog 1 (Homo sapiens, UniProt Q9GZT9); test: Binding affinity to […] PHD2 (181 to 426 residues) (unknown origin) by fluorescence polarization assay
Egl nine homolog 1, sequence (Q9GZT9 whole entry, the tested form may be a part): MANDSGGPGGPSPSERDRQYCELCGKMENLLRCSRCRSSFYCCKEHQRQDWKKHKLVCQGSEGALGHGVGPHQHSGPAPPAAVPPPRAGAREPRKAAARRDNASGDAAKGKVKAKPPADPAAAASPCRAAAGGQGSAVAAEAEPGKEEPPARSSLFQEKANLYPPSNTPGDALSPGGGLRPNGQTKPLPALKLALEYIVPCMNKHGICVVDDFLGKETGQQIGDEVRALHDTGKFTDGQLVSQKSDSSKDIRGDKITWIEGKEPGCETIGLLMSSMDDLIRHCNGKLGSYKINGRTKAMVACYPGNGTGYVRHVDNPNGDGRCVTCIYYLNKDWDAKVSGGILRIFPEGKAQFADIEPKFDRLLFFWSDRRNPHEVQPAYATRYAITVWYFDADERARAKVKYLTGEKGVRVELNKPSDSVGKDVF

[2] = Toxicity in ICR mouse assessed as heart damage at 50 to 200 mg/kg, po administered every other day for 14 days; type: organism-based; details: in vivo, 336 h, dose 50-200 mg/kg, time 14 day
[3] = system: Erythrocyte; test: Upregulation of reticulocytes in C57BL/6J mouse assessed as increase in RBC at 10 to 50 mg/kg, po administered once daily for 3 days; type: functional, organism-based; details: dose 10-50 mg/kg, time 3.0 day
[4] = Metabolic stability in rat liver microsomes assessed as clearance at 1 uM preincubated for 5 mins followed by NADPH addition and measured upto 60 mins by LC-MS/MS analysis; type: ADME, Microsome; details: time < 65 min, read-out: CLH
[5] = Toxicity in ICR mouse assessed as change in heart to body weight ratio at 50 to 200 mg/kg, po administered every other day for 14 days; type: organism-based; details: in vivo, 336 h, dose 50-200 mg/kg, time 14 day
[6] = AUC(0 to t) in Sprague-Dawley rat at 1 mg/kg, iv measured upto 24 hrs by LC-MS/MS analysis; type: ADME, organism-based; parameters: dose 1 mg/kg, time < 24 hrs, route iv; details: in vivo
[7] = system: Hep 3B2; test: Cytotoxicity against human Hep3B cells incubated for 48 hrs by CCK-8 assay; type: toxicity, cell-based; details: hep 3b2, 48 h
[8] = AUC(0 to t) in Sprague-Dawley rat at 10 mg/kg, po measured upto 24 hrs by LC-MS/MS analysis; type: ADME, organism-based; parameters: time < 24 hrs, dose 10 mg/kg, route po; details: in vivo
[9] = Toxicity in ICR mouse assessed as change in liver to body weight ratio at 50 to 200 mg/kg, po administered every other day for 14 days; type: organism-based; details: in vivo, 336 h, dose 50-200 mg/kg, time 14 day
[10] = Apparent volume of distribution in mouse at 1 mg/kg, iv measured upto 24 hrs by LC-MS/MS analysis; type: ADME, organism-based; details: in vivo, read-out: Vz
[11] = system: Hep 3B2; test: Effect on VEGFA gene expression in human Hep3B cells at 5 to 20 uM incubated for 12 hrs by RT-qPCR analysis; type: functional, cell-based; details: dose 5-20 µM
[12] = Half life in mouse at 1 mg/kg, iv measured upto 24 hrs by LC-MS/MS analysis; type: ADME, organism-based; details: in vivo
[13] = Tmax in mouse at 10 mg/kg, po measured upto 24 hrs by LC-MS/MS analysis; type: ADME, organism-based; details: in vivo
[14] = molecular target: Endothelial PAS domain-containing protein 1 (Homo sapiens) (UniProt Q99814); test: Induction of HIF-2alpha stabilization in human Hep3B cells at 20 to 50 uM by Western blotting analysis; type: cell-based; details: dose 20-50 µM
Endothelial PAS domain-containing protein 1 (Homo sapiens), sequence (Q99814 whole entry, the tested form may be a part): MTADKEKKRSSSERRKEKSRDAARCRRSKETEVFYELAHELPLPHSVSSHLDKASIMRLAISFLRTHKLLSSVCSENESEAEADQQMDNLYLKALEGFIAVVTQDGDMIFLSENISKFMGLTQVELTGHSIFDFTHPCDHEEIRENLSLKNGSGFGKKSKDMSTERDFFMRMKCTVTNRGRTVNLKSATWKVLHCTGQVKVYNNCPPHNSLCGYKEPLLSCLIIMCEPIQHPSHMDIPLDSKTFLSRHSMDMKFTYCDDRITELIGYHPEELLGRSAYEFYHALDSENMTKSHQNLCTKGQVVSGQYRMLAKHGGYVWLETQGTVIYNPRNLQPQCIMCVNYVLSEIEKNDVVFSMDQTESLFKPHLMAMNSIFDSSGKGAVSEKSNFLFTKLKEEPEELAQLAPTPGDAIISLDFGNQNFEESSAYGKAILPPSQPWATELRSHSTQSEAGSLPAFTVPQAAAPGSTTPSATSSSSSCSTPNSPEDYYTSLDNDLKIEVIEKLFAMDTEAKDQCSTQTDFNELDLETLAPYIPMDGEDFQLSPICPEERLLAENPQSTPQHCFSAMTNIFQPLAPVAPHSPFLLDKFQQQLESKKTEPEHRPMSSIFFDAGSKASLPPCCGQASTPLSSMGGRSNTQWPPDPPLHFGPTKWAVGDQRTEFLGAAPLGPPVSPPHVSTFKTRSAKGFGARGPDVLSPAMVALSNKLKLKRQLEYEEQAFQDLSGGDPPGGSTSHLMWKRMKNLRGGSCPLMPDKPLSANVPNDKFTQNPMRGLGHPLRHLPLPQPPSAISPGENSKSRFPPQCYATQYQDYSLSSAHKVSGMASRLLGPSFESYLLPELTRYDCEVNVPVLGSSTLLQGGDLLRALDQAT

[15] = Toxicity in ICR mouse assessed as spleen damage at 50 to 200 mg/kg, po administered every other day for 14 days; type: organism-based; details: in vivo, 336 h, dose 50-200 mg/kg, time 14 day
[16] = AUC(0 to t) in mouse at 1 mg/kg, iv measured upto 24 hrs by LC-MS/MS analysis; type: ADME, organism-based; parameters: time < 24 hrs, dose 1 mg/kg, route iv; details: in vivo
[17] = Toxicity in ICR mouse assessed as lung damage at 50 to 200 mg/kg, po administered every other day for 14 days; type: organism-based; details: in vivo, 336 h, dose 50-200 mg/kg, time 14 day
[18] = Cmax in Sprague-Dawley rat at 10 mg/kg, po measured upto 24 hrs by LC-MS/MS analysis; type: ADME, organism-based; parameters: time < 24 hrs, dose 10 mg/kg, route po; details: in vivo
[19] = Oral bioavailability in mouse at 10 mg/kg measured upto 24 hrs by LC-MS/MS analysis; type: ADME, organism-based; details: in vivo
[20] = Toxicity in ICR mouse assessed as change in kidney to body weight ratio at 50 to 200 mg/kg, po administered every other day for 14 days; type: organism-based; details: in vivo, 336 h, dose 50-200 mg/kg, time 14 day
[21] = Toxicity in ICR mouse assessed as change in lungs to body weight ratio at 50 to 200 mg/kg, po administered every other day for 14 days; type: organism-based; details: in vivo, 336 h, dose 50-200 mg/kg, time 14 day
[22] = Clearance in mouse at 10 mg/kg, po measured upto 24 hrs by LC-MS/MS analysis; type: ADME, organism-based; details: in vivo
[23] = Toxicity in ICR mouse assessed as change in spleen to body weight ratio at 50 to 200 mg/kg, po administered every other day for 14 days; type: organism-based; details: in vivo, 336 h, dose 50-200 mg/kg, time 14 day
[24] = AUC(0 to infinity) in mouse at 10 mg/kg, po measured upto 24 hrs by LC-MS/MS analysis; type: ADME, organism-based; parameters: dose 10 mg/kg, time < 24 hrs, route po; details: in vivo
[25] = Mean residence time (0 to infinity) in mouse at 1 mg/kg, iv measured upto 24 hrs by LC-MS/MS analysis; type: ADME, organism-based; details: in vivo
[26] = Mean residence time (0 to infinity) in Sprague-Dawley rat at 1 mg/kg, iv measured upto 24 hrs by LC-MS/MS analysis; type: ADME, organism-based; details: in vivo
[27] = Upregulation of EPO mRNA level in human Hep3B cells assessed as fold increase at 20 uM incubated for 12 hrs by RT-qPCR analysis; type: functional, Hep 3B2
[28] = Clearance in mouse at 1 mg/kg, iv measured upto 24 hrs by LC-MS/MS analysis; type: ADME, organism-based; details: in vivo
[29] = Mean residence time (0 to infinity) in mouse at 10 mg/kg, po measured upto 24 hrs by LC-MS/MS analysis; type: ADME, organism-based; details: in vivo
[30] = Apparent volume of distribution in mouse at 10 mg/kg, po measured upto 24 hrs by LC-MS/MS analysis; type: ADME, organism-based; details: in vivo
[31] = Apparent volume of distribution in Sprague-Dawley rat at 10 mg/kg, po measured upto 24 hrs by LC-MS/MS analysis; type: ADME, organism-based; details: in vivo
[32] = Clearance in Sprague-Dawley rat at 1 mg/kg, iv measured upto 24 hrs by LC-MS/MS analysis; type: ADME, organism-based; details: in vivo
[33] = Toxicity in ICR mouse assessed as effect on body weight at 50 to 200 mg/kg, po administered every other day for 14 days; type: organism-based; details: in vivo, 336 h, dose 50-200 mg/kg, time 14 day
[34] = Cmax in mouse at 10 mg/kg, po measured upto 24 hrs by LC-MS/MS analysis; type: ADME, organism-based; parameters: time < 24 hrs, dose 10 mg/kg, route po; details: in vivo
[35] = Clearance in Sprague-Dawley rat at 10 mg/kg, po measured upto 24 hrs by LC-MS/MS analysis; type: ADME, organism-based; details: in vivo
[36] = Toxicity in ICR mouse assessed as liver damage at 50 to 200 mg/kg, po administered every other day for 14 days; type: organism-based; details: in vivo, 336 h, dose 50-200 mg/kg, time 14 day
[37] = Toxicity in ICR mouse assessed as animal death at 800 mg/kg, po; type: organism-based; details: in vivo
[38] = AUC(0 to infinity) in Sprague-Dawley rat at 10 mg/kg, po measured upto 24 hrs by LC-MS/MS analysis; type: ADME, organism-based; parameters: dose 10 mg/kg, time < 24 hrs, route po; details: in vivo
[39] = Mean residence time (0 to infinity) in Sprague-Dawley rat at 10 mg/kg, po measured upto 24 hrs by LC-MS/MS analysis; type: ADME, organism-based; details: in vivo
[40] = Half life in Sprague-Dawley rat at 1 mg/kg, iv measured upto 24 hrs by LC-MS/MS analysis; type: ADME, organism-based; details: in vivo
[41] = AUC(0 to t) in mouse at 10 mg/kg, po measured upto 24 hrs by LC-MS/MS analysis; type: ADME, organism-based; parameters: dose 10 mg/kg, time < 24 hrs, route po; details: in vivo
[42] = molecular target: Hypoxia-inducible factor 1-alpha (Homo sapiens) (UniProt Q16665); test: Induction of HIF-1alpha stabilization in human Hep3B cells at 20 to 50 uM by Western blotting analysis; type: cell-based; details: dose 20-50 µM
Hypoxia-inducible factor 1-alpha (Homo sapiens), sequence (Q16665 whole entry, looked up): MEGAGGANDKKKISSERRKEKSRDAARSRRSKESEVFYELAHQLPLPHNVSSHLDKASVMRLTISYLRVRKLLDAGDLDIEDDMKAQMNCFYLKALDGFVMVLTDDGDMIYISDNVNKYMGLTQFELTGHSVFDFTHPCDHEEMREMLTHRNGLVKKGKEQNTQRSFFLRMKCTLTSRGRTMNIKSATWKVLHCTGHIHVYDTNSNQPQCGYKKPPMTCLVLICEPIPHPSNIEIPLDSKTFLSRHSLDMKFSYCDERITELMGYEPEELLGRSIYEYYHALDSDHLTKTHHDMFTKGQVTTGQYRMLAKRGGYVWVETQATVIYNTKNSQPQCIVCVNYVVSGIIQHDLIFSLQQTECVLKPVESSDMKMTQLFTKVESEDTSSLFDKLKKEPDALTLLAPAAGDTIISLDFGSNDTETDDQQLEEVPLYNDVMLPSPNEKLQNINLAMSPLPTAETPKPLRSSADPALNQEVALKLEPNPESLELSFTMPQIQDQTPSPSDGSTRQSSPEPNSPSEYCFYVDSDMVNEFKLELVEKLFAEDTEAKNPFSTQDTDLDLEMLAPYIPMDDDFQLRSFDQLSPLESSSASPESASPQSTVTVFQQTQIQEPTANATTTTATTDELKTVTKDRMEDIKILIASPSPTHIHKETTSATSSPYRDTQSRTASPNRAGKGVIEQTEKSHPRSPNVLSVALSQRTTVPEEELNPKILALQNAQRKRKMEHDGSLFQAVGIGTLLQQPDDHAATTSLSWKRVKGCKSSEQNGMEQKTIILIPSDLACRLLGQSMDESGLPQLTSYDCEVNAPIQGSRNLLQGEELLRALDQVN

[43] = Tmax in Sprague-Dawley rat at 10 mg/kg, po measured upto 24 hrs by LC-MS/MS analysis; type: ADME, organism-based; details: in vivo
[44] = AUC(0 to infinity) in mouse at 1 mg/kg, iv measured upto 24 hrs by LC-MS/MS analysis; type: ADME, organism-based; parameters: time < 24 hrs, dose 1 mg/kg, route iv; details: in vivo
[45] = Toxicity in ICR mouse assessed as effect on food intake at 50 to 200 mg/kg, po administered every other day for 14 days; type: organism-based; details: in vivo, 336 h, dose 50-200 mg/kg, time 14 day
[46] = AUC(0 to infinity) in Sprague-Dawley rat at 1 mg/kg, iv measured upto 24 hrs by LC-MS/MS analysis; type: ADME, organism-based; parameters: time < 24 hrs, dose 1 mg/kg, route iv; details: in vivo
[47] = Toxicity in ICR mouse assessed as behavioral abnormalities at 50 to 200 mg/kg, po administered every other day for 14 days; type: organism-based; details: in vivo, 336 h, dose 50-200 mg/kg, time 14 day
[48] = Hepatotoxicity in ICR mouse at 50 to 200 mg/kg, po administered every other day for 14 days; type: toxicity, organism-based; details: in vivo, 336 h, dose 50-200 mg/kg, time 14 day
[49] = Toxicity in ICR mouse assessed as kidney damage at 50 to 200 mg/kg, po administered every other day for 14 days; type: organism-based; details: in vivo, 336 h, dose 50-200 mg/kg, time 14 day
[50] = Apparent volume of distribution in Sprague-Dawley rat at 1 mg/kg, iv measured upto 24 hrs by LC-MS/MS analysis; type: ADME, organism-based; details: in vivo, read-out: Vz
[51] = Oral bioavailability in Sprague-Dawley rat at 10 mg/kg measured upto 24 hrs by LC-MS/MS analysis; type: ADME, organism-based; details: in vivo
[52] = Half life in mouse at 10 mg/kg, po measured upto 24 hrs by LC-MS/MS analysis; type: ADME, organism-based; details: in vivo
[53] = system: Mus musculus; test: Upregulation of reticulocytes in C57BL/6J mouse at 10 mg/kg, po administered once daily for 3 days; type: functional, organism-based; details: time 3.0 day
[54] = Nephrotoxicity in ICR mouse at 50 to 200 mg/kg, po administered every other day for 14 days; type: toxicity, organism-based; details: in vivo, 336 h, dose 50-200 mg/kg, time 14 day
[55] = system: Hep 3B2; test: Upregulation of EPO mRNA level in human Hep3B cells incubated for 12 hrs by RT-qPCR analysis; type: functional, cell-based; details: dose 5-20 µM

- pIC50 [1]: 7.25
SMILES: O=C(O)CNC(=O)c1ncc(C2CCN(C(=O)CNc3ccccc3)CC2)cc1O

SMILES: O=C(O)CNC(=O)c1ncc(C2CCN(C(=O)CNc3ccc(Cl)cc3)CC2)cc1O
- Activity [2]: Non-Toxic
- Activity [3]: Dose-Dependent Effect
- microsomal CLint at 1 µM [4]: 3.8 µL/min/mg
- Activity [5]: Non-Toxic
- AUC(0-t) at 24 h [6]: 2060 ng·h/mL
- Activity [7]: Non-Toxic
- AUC(0-t) at 24 h [8]: 7120 ng·h/mL
- Activity [9]: Non-Toxic
- Vd [10]: 0.345 L/kg
- Activity [11]: inactive
- half-life [12]: 19.8 min
- Tmax [13]: 30 min
- Activity [14]: Active
- Activity [15]: Non-Toxic
- AUC(0-t) at 24 h [16]: 1380 ng·h/mL
- Activity [17]: Non-Toxic
- Cmax [18]: 26100 ng/mL
- bioavailability [19]: 35.3%
- Activity [20]: Non-Toxic
- Activity [21]: Non-Toxic
- CL/F [22]: 37.4 mL/min/kg
- Activity [23]: Non-Toxic
- AUC(0-inf) [24]: 4490 ng·h/mL
- pIC50 [1]: 7.65
- MRT inf [25]: 31.8 min
- MRT inf [26]: 92.4 min
- fold change (FC) [27]: 11
- clearance [28]: 12 mL/min/kg
- MRT inf [29]: 100 min
- Vz [30]: 4.532 L/kg
- Vz [31]: 4.692 L/kg
- clearance [32]: 8.05 mL/min/kg
- Activity [33]: Non-Toxic
- Cmax [34]: 3040 ng/mL
- CL/F [35]: 23.6 mL/min/kg
- Activity [36]: Non-Toxic
- Activity [37]: Non-Toxic
- AUC(0-inf) [38]: 7140 ng·h/mL
- MRT inf [39]: 33.6 min
- half-life [40]: 223 min
- AUC(0-t) at 24 h [41]: 4480 ng·h/mL
- Activity [42]: Active
- Tmax [43]: 4.8 min
- AUC(0-inf) [44]: 1390 ng·h/mL
- Activity [45]: Non-Toxic
- AUC(0-inf) [46]: 2110 ng·h/mL
- Activity [47]: Non-Toxic
- Activity [48]: Non-Toxic
- Activity [49]: Non-Toxic
- Vd [50]: 2.64 L/kg
- bioavailability [51]: 33.9%
- half-life [52]: 70.2 min
- Activity [53]: Active
- Activity [54]: Non-Toxic
- Activity [55]: Dose-Dependent Effect

- pIC50 [1]: 7.16
SMILES: O=C(O)CNC(=O)c1ncc(C2CCN(C(=O)c3ccccc3)CC2)cc1O

- pIC50 [1]: 7.46
SMILES: Cc1ccc(C(=O)N2CCC(c3cnc(C(=O)NCC(=O)O)c(O)c3)CC2)cc1
